According to patent US20230192705A1, “SHP2 INHIBITORS, COMPOSITIONS AND USES THEREOF” (Betta Pharmaceuticals Co., Ltd, priority 2020, published 2023):

Assays:
[1] = In vitro metabolic stability in rat liver microsome; format: in vitro ADME; details: rat liver microsomes
Protocol: (§1) 1900 mg MgCl2 was dissolved into a final volume of 400 mL ultra-pure water.
(§2) 17.42 g K2HPO4 and 13.65 g KH2PO4 were dissolved into a final volume of 1000 mL ultra-pure water, respectively. K2HPO4 and KH2PO4 were mixed to prepare 100 mM potassium phosphate (PBS) buffer. The pH value of the final solution was adjusted to pH 7.30±0.10.
(§3) Cold ACN (including 10 ng/mL Labetalol and 10 ng/mL Glibenclamid) was stored at 4° C.
(§4) Working Solution Preparation:
(§5) Verapamil (positive control) and test compound stock solution were diluted into a concentration of 50 μM and 200 μM respectively, using MeOH/ACN/H2O solution (1:1:2, v/v/v).
(§6) 1) 40 μL MgCl2 and 306 μL PBS were added to 96 plate wells (blank, compound wells, compounds without NADPH wells)
(§7) 2) 4 μL compound working solution was added to above wells (blank: 4 μL PBS buffer) (Note: the volume of DMSO in final incubation system ≤0.5%)
(§8) 3) 10 μL microsomes (20 mg/mL) was added in each well. The mixture was warmed up for 10 minutes at 37.0° C.
(§9) 4) 40 μL 10 mM NADPH working solution was added to start reaction. The total volume was 400 μL.
(§10) 5) Aliquots of 50 μL samples were taken from the reaction solution at 0, 5, 15, 45 min. The reaction solutions were stopped by the addition of 400 μL stop solution.
(§11) 6) The sampling plates were shaked for approx. 5 min.
(§12) 7) Samples were centrifuged at 3200 rcf for 10 min. then transferred 50 μL to a new plate dilute with 200 μL H2O for LC/MS/MS analysis.
(§13) Use equation of first order kinetics to calculate t1/2 and CL: […]
(§14) Where k represents elimination constant, which is calculated from a log linear plot of % Remaining versus time. t1/2 represents the half-life. Cprotein is the concentration of liver microsomes.

[2] = In vitro metabolic stability in human liver microsome; format: in vitro ADME; details: human liver microsomes
Protocol: as §1, §2, §3, §4, §5, §6, §7, §8, §9, §10, §11, §12, §13, §14

[3] = target: T1, hERG channel (Homo sapiens, UniProt Q12809); test: Patch clamp assay to test the effect of compound on hERG channel; format: cell-based; details: manual patch clamp, HEK 293 cells expressed with hERG, concentration for half maximum effect
T1 construct: expressed in transfected cells; host or cells: HEK-293
T1 sequence (Q12809 whole entry): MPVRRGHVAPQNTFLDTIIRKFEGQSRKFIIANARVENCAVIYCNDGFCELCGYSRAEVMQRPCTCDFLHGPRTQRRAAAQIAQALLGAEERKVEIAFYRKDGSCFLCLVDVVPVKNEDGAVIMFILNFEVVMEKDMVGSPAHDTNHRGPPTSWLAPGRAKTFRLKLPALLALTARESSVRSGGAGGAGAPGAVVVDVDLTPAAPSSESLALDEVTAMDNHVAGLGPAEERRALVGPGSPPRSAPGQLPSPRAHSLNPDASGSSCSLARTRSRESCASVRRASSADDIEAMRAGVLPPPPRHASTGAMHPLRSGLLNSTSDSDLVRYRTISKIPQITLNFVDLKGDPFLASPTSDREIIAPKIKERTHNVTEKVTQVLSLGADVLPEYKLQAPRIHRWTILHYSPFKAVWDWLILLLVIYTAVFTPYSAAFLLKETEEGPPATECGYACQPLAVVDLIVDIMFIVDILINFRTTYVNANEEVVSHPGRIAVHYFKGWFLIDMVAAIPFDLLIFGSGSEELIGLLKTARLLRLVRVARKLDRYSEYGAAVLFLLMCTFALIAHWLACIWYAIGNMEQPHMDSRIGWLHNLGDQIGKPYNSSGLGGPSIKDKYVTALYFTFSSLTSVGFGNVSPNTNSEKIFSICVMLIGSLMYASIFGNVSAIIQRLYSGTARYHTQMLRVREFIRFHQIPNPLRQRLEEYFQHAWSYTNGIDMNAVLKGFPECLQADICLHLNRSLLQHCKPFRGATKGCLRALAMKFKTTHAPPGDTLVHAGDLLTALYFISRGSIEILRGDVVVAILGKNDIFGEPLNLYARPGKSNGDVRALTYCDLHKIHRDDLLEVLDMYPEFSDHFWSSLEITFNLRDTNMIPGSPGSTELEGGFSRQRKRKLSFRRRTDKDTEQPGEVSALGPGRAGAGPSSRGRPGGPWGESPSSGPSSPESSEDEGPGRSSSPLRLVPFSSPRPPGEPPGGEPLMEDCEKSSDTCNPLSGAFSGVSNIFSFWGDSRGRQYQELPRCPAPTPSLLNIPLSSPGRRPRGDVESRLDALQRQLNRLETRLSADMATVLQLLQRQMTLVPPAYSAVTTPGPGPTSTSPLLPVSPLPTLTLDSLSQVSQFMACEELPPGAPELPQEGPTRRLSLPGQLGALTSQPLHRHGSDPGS
Protocol: 10 mL extracellular solution was used to dilute the stock solution, making the final concentrations of test compound were 0.3 μM, 1 μM, 3 μM, 10 μM and 30 μM.
The solubility of compound was visually observed.
The cell line was derived from HEK-293 cells, and grown in a humidified environment at 37° C. under 5% CO2, using the media formulation below. The cell line should not be allowed to exceed 80% confluence within the culture vessel to prevent contact inhibition causing senescence and should thus be passaged every 3/4 days using a seeding density of 2*10^6 cells per T175 flask. Cell lines were be pre-washed with phosphate buffered saline before harvesting with Trypsin/EDTA and seeded into new flasks.
HEK 293 cells expressed with hERG were plated on cover slips overnight with the cell density less than 50% of confluence. Cells used for electrophysiological study were transferred to a small cell bath (1 mL) mounted on the stage of an inverted microscope (Diaphot, Nikon) and were perfused with external solution containing (in mM) 130 NaCl, 4 KCl, 1.8 CaCl2), 1 MgCl2, 10 glucose and 10 HEPES (pH 7.4 with NaOH), the perfusion rate was 4 mL/min. The internal pipette solution contained (in mM) 130 KCl, 1 MgCl2, 5 ethylene glycol-bis(baminoethyl ether)-N,N,N8,N8-tetraacetic acid, 5 MgATP and 10 HEPES (pH 7.2 with KOH). An HEKA EPC-10 patch-clamp amplifier and PATCHMASTER acquisition program were used to record membrane currents (HEKA Instruments IncD-67466 Lambrecht/Pfalz Germany). All experiments were performed at room temperature (22-23° C.).
The Model P-97 micropipette puller (Sutter Instrument Company, One Digital Drive, Novato, Calif. 94949) was used to pull glass patch pipettes (BF150-86-10) in all experiments.
The experiments were initiated with a 2 min vehicle control period after forming a whole cell configuration with less 5% run-down in 5 min and the tail currents in the report were at least greater than 500 pA. After a 2 min vehicle control period, the perfusion was switched to the reservoir containing the compound at the first concentration. The same procedure was repeated 3-5 times so that each cell was exposed to 4-6 escalating concentrations of compound. The time courses for block and unblock of hERG during compounds exposure and washout were continuously recorded.
The peak tail of hERG was generated by applying 2-sec depolarizing every 12 sec steps from a holding potential of −80 mV, the peak of tail currents were measured at a 5-sec repolarizing pulse at −50 mV.
hERG peak tail currents were directly measured from a 5 sec repolarization pulse at −50 mV. The fraction of control current was plotted as a function of logarithm of compound concentration. To determine the concentration of compound for halfmaximum effect, the concentration-response curve was fitted by Hill equation as shown follow.
where Y is the observed value, Bottom is the lowest observed value (0), Top is the highest observed value (1), and the Hillcoefficient gives the largest absolute value of the slope of the curve.
Data were analyzed by a combination of PATCHMASTER ((HEKA Instruments IncD-67466 Lambrecht/Pfalz Germany) and Origin (OriginLab Corporation, Northampton, Mass.) software programs.
Data were expressed as mean±SEM.

[4] = target: T2, SHP2 (Homo sapiens, UniProt Q06124); test: SHP2 allosteric inhibitor enzyme activity assay (DiFMUP fluorescence); format: biochemical
T2 sequence (Q06124 1-593): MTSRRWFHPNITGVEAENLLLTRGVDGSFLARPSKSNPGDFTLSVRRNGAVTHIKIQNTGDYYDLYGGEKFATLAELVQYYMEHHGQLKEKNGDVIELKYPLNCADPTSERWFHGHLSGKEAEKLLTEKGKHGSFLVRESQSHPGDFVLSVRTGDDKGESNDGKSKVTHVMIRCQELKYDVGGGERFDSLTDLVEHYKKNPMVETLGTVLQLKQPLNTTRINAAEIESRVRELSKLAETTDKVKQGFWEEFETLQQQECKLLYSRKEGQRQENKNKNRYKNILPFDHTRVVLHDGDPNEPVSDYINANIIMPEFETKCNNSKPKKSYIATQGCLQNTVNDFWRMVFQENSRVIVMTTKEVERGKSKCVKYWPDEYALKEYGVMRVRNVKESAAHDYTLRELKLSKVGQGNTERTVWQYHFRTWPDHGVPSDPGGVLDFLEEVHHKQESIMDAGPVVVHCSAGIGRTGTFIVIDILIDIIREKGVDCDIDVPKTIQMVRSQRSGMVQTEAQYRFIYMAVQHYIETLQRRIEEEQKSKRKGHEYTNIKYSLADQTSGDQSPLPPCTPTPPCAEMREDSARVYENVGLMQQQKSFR
How it was run: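 SHP2 activated by 0.5 μM IRS1_pY1172(dPEG8)pY1222 peptide, 0.2 ng enzyme per well, 1 h at room temperature with compound (1 μM top, 3-fold series), then DiFMUP substrate 1 h. Buffer: 60 mM HEPES, 75 mM NaCl, 75 mM KCl, 0.05% BRIJ-35, 1 mM EDTA, 5 mM DTT. Fluorescence ex 340/em 450 nm; IC50 by variable-slope fit.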

CLint Rat [1]	CLint Human [2]	IC50 ([4]; numeric values)	IC50 ([4]; class symbols)	SMILES	IC50 [3]
102.0 μL/min/mg proteins	182.7 μL/min/mg proteins	–	–	N[C@@H]1c2ccccc2CC12CCN(c1nc3[nH]nc(C4(Cc5ccccc5)CC4)c3c(=O)[nH]1)CC2 [Example 74]	1840 nM
89.9 μL/min/mg proteins	171.8 μL/min/mg proteins	–	–	Cn1c(N2CCC3(CC2)Cc2ccccc2[C@H]3N)nc2[nH]nc(Sc3cccc(Cl)c3Cl)c2c1=O [Comparative compound 1, reference compound]	90 nM
32.5 μL/min/mg proteins	50.0 μL/min/mg proteins	1.1 nM	–	CC(C)(c1ccccc1)c1n[nH]c2nc(N3CCC4(CC3)Cc3ccccc3[C@H]4N)[nH]c(=O)c12 [Example 216, (S)-6-(1-amino-1,3-dihydrospiro[indene-2,4′-piperidin]-1′-yl)-3-(2-phenylpropan-2-yl)-1,5-dihydro-4H-pyrazolo[3,4-d]pyrimidin-4-one]	–
3.4 μL/min/mg proteins	0.2 μL/min/mg proteins	–	≤ 20 nM	N[C@@H]1c2ccccc2CC12CCN(c1nc3[nH]nc(C4(c5ccc(OC(F)(F)F)cc5)CC4)c3c(=O)[nH]1)CC2 [Example 233, (S)-6-(1-amino-1,3-dihydrospiro[indene-2,4′-piperidin]-1′-yl)-3-(1-(4-(trifluoromethoxy)phenyl)cyclo-propyl)-1,5-dihydro-4H-pyrazolo[3,4-d]pyrimidin-4-one]	–
